Common to all, as to type: cell-based, mouse
For one data set, the system named is fibronectin. Put plainly: Fibronectin expression in bone marrow cells (Western blotting, real-time PCR). On the procedure: Bone marrow cells were collected from 10-week-old EP1^−/− and wild-type mice and treated with 3 μM PGE2 for 24 hours before harvest. Total protein was extracted from the cultured cells at day 17 and RNA was extracted at days 10, 12, 14, 17 and 21 after culture. Western blotting (FIG. 10A) and real-time PCR (FIG. 10B) were performed to examine the expression levels of fibronectin. […] Statistical comparisons were performed using 2-way ANOVA followed by Dunnett's test. a=P<0.05 vs. wild-type, b=P<0.05 vs. control, c=P<0.05 vs. PGE2.
(§1) Relative RNA levels of EP1 and fibronectin were determined by real-time PCR (FIGS. 11A and 11B). Immunohistochemistry was performed using mouse fibronectin primary antibody on the femur fracture tissue samples collected from 10-week-old EP1^−/− and wild-type mice at 3 and 7 days post-fracture (FIG. 11C). Statistical comparisons were performed using 2-way ANOVA followed by Student's t-test. a=P<0.05 vs. wild-type, b=P<0.05 vs. control, c=P<0.05 vs. PGE2.
(§2) Mice were sacrificed post fracture at 3, 7, 10, 14, 21 and 28 days (N=4). Fracture callus tissue samples were carefully dissected from soft tissue and homogenized using the TissueLyzer (Qiagen; Valencia, Calif.). Total RNA was then extracted from homogenized samples by the RNeasy Fibrous Tissue Midi Kit (Qiagen) according to the manufacturer's instructions. One microgram aliquots of RNA were reverse transcribed into cDNA using the iScript cDNA Synthesis Kit (Bio-Rad; Hercules, Calif.). Real-time […] was performed using the Rotor Gene 6000 real-time DNA amplification system (Qiagen) according to the manufacturer's instruction. […]
Bone marrow cells were washed with cold phosphate-buffered saline (PBS) three times and lysed on ice in Golden Lysis Buffer (GLB) for 30 minutes as previously described (Li et al., Exp. Cell Res. 300:159-69 (2004)). […] The immune complexes were detected using NBT/BCIP substrate (Pierce Biotechnology).

The subject of a further data set is EP2 and EP4 receptors. Put plainly: cAMP-Glo Assay in bone marrow cell cultures. More on the design: dose or concentration left out as unconfirmed. The settings on record: bone marrow cell cultures from wild type and EP1−/− mice. On the procedure:
Bone marrow cells were isolated from 10-week-old EP1^−/− mice and wild-type mice. After culturing for 7 days, cells were treated with PGE2 ([…]) or vehicle for 24 hours. […] The representative photomicrographs are shown at 200× original magnification. Statistical comparisons were performed using Student's T-test. “a” indicates p<0.05 compared to wild-type, “b” indicates p<0.05 compared to EP1^−/−. β-actin served as the loading control.
(§3) Bone marrow cells were isolated from 10-week-old EP1^−/− and C57BL/6J mice. Cells were cultured in 2 ml α-MEM containing 10% FBS at 5×10^6 cells/well in 6-well plates. After being cultured for 7 days, the medium was replaced with media containing beta-glycerophosphate and ascorbic acid, and the media was changed every two days thereafter. Cells were harvested on day 10, 12, 14, 17 and 21 after plating for alkaline phosphatase and alizarin red staining, and mRNA analysis by quantitative real-time PCR. Cell proliferation was examined using the Cell Proliferation ELISA BrdU (colorimetric) immunoassay kit (Roche; Indianapolis, Ind.) according to the manufacturer's instructions. Cell viability was examined using the CellTiter-Blue Cell Viability Assay (Promega; Madison, Wis.) according to the manufacturer's instructions. Intracellular cAMP activity in bone marrow cells was examined using the cAMP-Glo Assay (Promega) according to the manufacturer's instructions.

For data set [1], the system named is primary bone marrow stromal cells. Put plainly: Bone nodule formation / mineralization (Alizarin red staining) in bone marrow cell cultures. On the procedure:
(§4) An EP1 expression vector was transfected into the EP1^−/− bone marrow cells by electroporation. […] Bone marrow progenitor cells at day 12 after culture were treated with SC19220 (10 μm) for 30 minutes followed by treatment with PGE2 (3 μm). After 24 hours, cells were stained with Alizarin red (FIGS. 12C and 12D). RNA extracted from the cultures was examined for osteocalcin expression (FIG. 12E). Statistical comparisons were performed using Student's t-test. a=P<0.05 vs. control, b=P<0.05 vs. PGE2.
Increasing concentrations of fibronectin were added to bone marrow cell cultures at day 12. 24 hours later, cells were stained with Alizarin Red (FIGS. 13A and 138) or harvested for real-time PCR (FIG. 13B). Statistical comparisons were performed using Student's t-test, a=P<0.05 vs. control.
as §3

In the next data set the test system is osteocalcin. Put plainly: Osteocalcin expression by real-time PCR in bone marrow cell cultures. As to conditions: cultures treated with SC19220 and PGE2, RNA. The method, then:
as §4
as §3, with “Intracellular cAMP activity in bone marrow cells was examined using the cAMP-Glo Assay (Promega) according to the manufacturer's instructions.” left out
(In general: Real-time PCR tracks product formation cycle by cycle.)

Another data set has as its system EP1 mRNA. Put plainly: siRNA knock down of EP1 expression in primary bone marrow stromal cells (real-time PCR). The settings on record: primary bone marrow stromal cells transfected with EP1 siRNA. The method, then: as §1, §2
To further confirm regulation of fibronectin by the PGE2-EP1 signaling pathway, siRNA as described above was used to knock down EP1 expression in primary bone marrow stromal cells. […] Fibronectin expression levels were examined by quantitative real-time PCR.

`CCCCC[C@H](O)/C=C/[C@H]1[C@H](O)CC(=O)[C@@H]1C/C=C\CCCC(=O)O` [PGE2]: in the data set with fibronectin (cells with control siRNA, quantitative real-time PCR), the fibronectin expression entry was “stimulate fibronectin expression”. Moreover, in the data set on fibronectin (wild-type bone marrow cells compared with EP1−/− cells, 3 μM PGE2 for 24 hours), the “expression of fibronectin (protein and mRNA)” value is given as “dramatically increased”. In the data set with EP2 and EP4 receptors, the “levels of cAMP” value is given as “similarly enhanced”.

Turning to `CC(=O)NNC(=O)N1Cc2ccccc2Oc2ccc(Cl)cc21` [SC19220, 8-chloro-dibenz[b,f][1,4]oxazepine-10(11H)-carboxy-(2-acetyl)hydrazide], the bone nodule formation entry in data set [1] (primary bone marrow cell cultures at day 12, SC19220 (10 μm) for 30 minutes, then PGE2 (3 μm), 24 hours, Alizarin red) is on record as “accelerated bone nodule formation”. Also, the “time in culture at which bone nodule formation was induced” value in data set [1] (wild-type cells, 12 day cultures treated with antagonist and PGE2 for 24 hours, untreated cultures typically form nodules following 14 days) is given as at most 13 days. The “expression level of osteocalcin” value with osteocalcin is “increased”.

As for fibronectin, the bone nodule formation entry in data set [1] (wild-type bone marrow cells, 5 μg/ml fibronectin added at day 12, 24 hours, alizarin red) was “did not alter bone nodule formation”. For the same compound, the mineralization entry is listed as “significantly reduced mineralization” in data set [1] (wild-type bone marrow cells, 12.5 μg/ml fibronectin added at day 12, 24 hours, alizarin red) and “significantly reduced mineralization” in data set [1] (wild-type bone marrow cells, 25 μg/ml fibronectin added at day 12, 24 hours, alizarin red).

Turning to “EP1 siRNA: siRNA used to knock down EP1 expression; example sequences SEQ ID NO:21 and SEQ ID NO:22 (chain 1 AGCUUGUCGGUAUCAUGGUTT; chain 2 ACUUCUAAGCACACCAGATT; chemistry not given here)”, the “decrease of EP1 mRNA” value in the data set on EP1 mRNA is “about 40%”. The PGE2-stimulated fibronectin expression entry in the data set on fibronectin (cells transfected with EP1 siRNA vs control siRNA, quantitative real-time PCR) is “inhibited”.

The values above are taken from patent US20120328631A1, “EP1 INHIBITION” (UNIVERSITY OF ROCHESTER, priority 2010, published 2012).
